Assay results as given in US20100041642A1, “UREA INHIBITORS OF MAP KINASES” (LOCUS PHARMACEUTICALS, INC., priority 2008, published 2010).

Molecular target: p38 (Homo sapiens, UniProt Q16539)
Assay: Protein Kinase Assay (33P incorporation from γ-[33P]ATP into GST-ATF-2)
Assay type: biochemical
Details: 2 nM p38, preincubated 20 min at 30° C.; 10 uM cold ATP, 2 uM GST-ATF2, 70 min; read-out: ACT. (Activity), IC50 category in Protein Kinase Assay
Procedure, shortened: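 Compounds preincubated 20 min at 30 °C with 2 nM p38; reaction started with 2 uM GST-ATF-2 (aa 19-96) and 10 uM ATP plus γ-[33P]ATP, pH 7.5, 70 min at 30 °C, 2% DMSO. Phosphoric acid stop; 33P-labelled substrate captured on phosphocellulose and counted by scintillation.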

Chain of p38 (Q16539 whole entry): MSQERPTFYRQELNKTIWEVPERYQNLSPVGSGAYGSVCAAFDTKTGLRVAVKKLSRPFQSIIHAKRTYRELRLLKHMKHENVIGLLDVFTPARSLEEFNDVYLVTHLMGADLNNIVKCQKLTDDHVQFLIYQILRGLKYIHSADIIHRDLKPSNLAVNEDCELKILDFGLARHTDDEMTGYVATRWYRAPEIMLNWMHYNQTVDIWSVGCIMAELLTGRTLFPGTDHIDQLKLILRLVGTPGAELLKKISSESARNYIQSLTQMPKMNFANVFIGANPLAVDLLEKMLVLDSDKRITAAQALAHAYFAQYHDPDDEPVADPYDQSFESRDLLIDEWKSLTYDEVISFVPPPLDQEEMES

- IC50: < 100 nM
SMILES: CCc1ccc(-c2cc(NC(=O)Nc3sc(C(C)(C)C)cc3C(=O)N3CCNC(=O)C3(C)C)ccc2C)cn1 [1-(5-tert-butyl-3-(2,2-dimethyl-3-oxopiperazine-1-carbonyl)thiophen-2-yl)-3-(3-(6-ethylpyridin-3-yl)-4-methylphenyl)urea]
